From patent US11236129B2, “IL-17A binding peptides and medical uses thereof” (Dompe' Farmaceutici S.P.A., priority 2018, dated 2022)
Residues, ends and D or L forms follow the SMILES beside them.

target: IL-17RA/IL17RC dimerization induced by IL-17A (Homo sapiens, UniProt Q16552); experiment: IL-17RA/IL17RC dimerization assay in response to IL-17A (PathHunter Cytokine Receptor Assay); format: cell-based; conditions: IL-17A at EC80; read-out: IC50 in IL-17RA/IL7RC dimerization assay
Procedure, shortened: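 PathHunter cells with IL-17RA and IL-17RC tagged for β-galactosidase complementation were preincubated 60 min with peptide (1% vehicle). IL-17A was then added at EC80 for 6–16 h at 37 °C, and chemiluminescence was read. Inhibition is relative to the EC80 and vehicle controls.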

Chain of IL-17RA/IL17RC dimerization induced by IL-17A (Q16552 24-155): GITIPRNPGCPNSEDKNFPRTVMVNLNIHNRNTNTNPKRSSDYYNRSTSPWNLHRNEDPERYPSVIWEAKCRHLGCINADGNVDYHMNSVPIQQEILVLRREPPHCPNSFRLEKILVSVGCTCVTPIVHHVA

SMILES	IC50 [µM]
CC(=O)N[C@H](C(=O)N[C@@H](Cc1c[nH]cn1)C(=O)N[C@@H](Cc1ccccc1)C(=O)N[C@@H](CCC(N)=O)C(=O)N[C@@H](Cc1ccccc1)C(=O)N1CCC[C@H]1C(=O)N[C@@H](C)C(=O)N[C@@H](CC(=O)O)C(=O)N[C@@H](CC(C)C)C(=O)N[C@@H](Cc1c[nH]c2ccccc12)C(=O)N[C@@H](CCC(=O)O)C(=O)N[C@@H](Cc1ccccc1)C(=O)N[C@H](C(=O)N[C@@H](CCCNC(=N)N)C(=O)N[C@@H](CCCNC(=N)N)C(N)=O)C(C)C)C(C)C [SEQ ID NO: 134] (Ac-VHFQFPADLWEFVRR-NH2)	< 0.5
CC(=O)N[C@H](C(=O)N[C@@H](Cc1c[nH]cn1)C(=O)N[C@@H](Cc1ccccc1)C(=O)N[C@@H](CCC(N)=O)C(=O)N[C@@H](Cc1ccccc1)C(=O)N1CCC[C@H]1C(=O)N[C@@H](CCC(N)=O)C(=O)N[C@@H](CC(=O)O)C(=O)N[C@@H](CC(C)C)C(=O)N[C@@H](Cc1c[nH]c2ccccc12)C(=O)N[C@@H](CCC(=O)O)C(=O)N[C@@H](Cc1ccccc1)C(=O)N[C@H](C(=O)N[C@@H](CCCNC(=N)N)C(=O)N[C@@H](CCCNC(=N)N)C(N)=O)C(C)C)C(C)C [SEQ ID NO: 140] (Ac-VHFQFPQDLWEFVRR-NH2)	< 0.5
CC(=O)N[C@H](C(=O)N[C@@H](CCCNC(=N)N)C(=O)N[C@H](C(=O)N[C@H](C(=O)N[C@H](C(=O)N1CCC[C@H]1C(=O)N[C@@H](CCC(N)=O)C(=O)N[C@@H](CCC(=O)O)C(=O)N[C@@H](CC(C)C)C(=O)N[C@@H](Cc1ccc(O)cc1)C(=O)N[C@@H](CCC(=O)O)C(=O)N[C@@H](Cc1c[nH]c2ccccc12)C(=O)N[C@H](C(=O)N[C@@H](CCCNC(=N)N)C(=O)N[C@@H](CCCNC(=N)N)C(N)=O)C(C)C)C(C)C)[C@@H](C)O)C(C)C)C(C)C [SEQ ID NO: 234] (Ac-VRVTVPQELYEWVRR-NH2)	< 10
CC(=O)N[C@H](C(=O)N[C@@H](Cc1c[nH]cn1)C(=O)N[C@@H](Cc1ccccc1)C(=O)N[C@@H](CCC(N)=O)C(=O)N[C@@H](Cc1ccccc1)C(=O)N1CCC[C@H]1C(=O)N[C@@H](C)C(=O)N[C@@H](CC(=O)O)C(=O)N[C@@H](CC(C)C)C(=O)N[C@@H](Cc1c[nH]c2ccccc12)C(=O)N[C@@H](CC(N)=O)C(=O)N[C@@H](Cc1c[nH]c2ccccc12)C(=O)N[C@H](C(=O)N[C@@H](CCCNC(=N)N)C(=O)N[C@@H](CCCNC(=N)N)C(N)=O)C(C)C)C(C)C [SEQ ID NO: 133] (Ac-VHFQFPADLWNWVRR-NH2)	< 0.5
CC[C@H](C)[C@H](NC(=O)CNC(=O)[C@H](C)NC(=O)CNC(=O)[C@@H]1CCCN1C(=O)[C@@H](NC(=O)CNC(=O)[C@H](C)NC(=O)CNC(=O)[C@@H]1CCCN1C(=O)[C@@H](NC(C)=O)C(C)C)C(C)C)C(=O)N[C@@H](Cc1c[nH]cn1)C(=O)N[C@H](C(=O)N[C@H](C(=O)N[C@H](C(=O)N1CCC[C@H]1C(=O)N[C@@H](C)C(N)=O)[C@@H](C)CC)[C@@H](C)O)C(C)C [SEQ ID NO: 157] (Ac-VPGAGVPGAGIHVTIPA-NH2)	< 0.5
CC(=O)N[C@H](C(=O)N[C@@H](Cc1c[nH]cn1)C(=O)N[C@@H](Cc1ccccc1)C(=O)N[C@@H](CCC(N)=O)C(=O)N[C@@H](Cc1ccccc1)C(=O)N1CCC[C@H]1C(=O)N[C@@H](C)C(=O)N[C@@H](CC(=O)O)C(=O)N[C@@H](Cc1ccccc1)C(=O)N[C@@H](Cc1c[nH]c2ccccc12)C(=O)N[C@@H](CCC(=O)O)C(=O)N[C@@H](Cc1c[nH]c2ccccc12)C(=O)N[C@H](C(=O)N[C@@H](CCCNC(=N)N)C(=O)N[C@@H](CCCNC(=N)N)C(N)=O)C(C)C)C(C)C [SEQ ID NO: 131] (Ac-VHFQFPADFWEWVRR-NH2)	< 0.5
CC(=O)N[C@H](C(=O)N[C@@H](Cc1c[nH]cn1)C(=O)N[C@H](C(=O)N[C@H](C(=O)N[C@H](C(=O)N1CCC[C@H]1C(=O)N[C@@H](CCC(N)=O)C(=O)N[C@@H](CCC(=O)O)C(=O)N[C@@H](CC(C)C)C(=O)N[C@@H](Cc1ccc(O)cc1)C(=O)N[C@@H](CCC(=O)O)C(=O)N[C@@H](Cc1c[nH]c2ccccc12)C(=O)N[C@H](C(=O)N[C@@H](CCC(=O)O)C(=O)N[C@@H](CCC(=O)O)C(N)=O)C(C)C)C(C)C)[C@@H](C)O)C(C)C)C(C)C [SEQ ID NO: 229] (Ac-VHVTVPQELYEWVEE-NH2)	< 10

Second part, the compound after the results:

IC50 [µM]	SMILES
< 10	CC[C@H](C)[C@H](NC(C)=O)C(=O)N[C@@H](Cc1c[nH]cn1)C(=O)N[C@H](C(=O)N[C@H](C(=O)N[C@H](C(=O)NCC(=O)N[C@@H](C)C(=O)N[C@@H](CC(=O)O)C(=O)N[C@@H](CC(C)C)C(=O)N[C@@H](Cc1c[nH]c2ccccc12)C(=O)N[C@@H](CC(=O)O)C(=O)N[C@@H](Cc1c[nH]c2ccccc12)C(=O)N[C@H](C(=O)N[C@@H](CC(N)=O)C(=O)N[C@@H](CCCCN)C(N)=O)[C@@H](C)CC)[C@@H](C)CC)[C@@H](C)O)C(C)C [SEQ ID NO: 187] (Ac-IHVTIGADLWDWINK-NH2)
< 0.5	CC[C@H](C)[C@H](NC(=O)[C@@H](NC(=O)[C@@H](NC(=O)[C@H](Cc1c[nH]cn1)NC(=O)[C@@H](NC(C)=O)C(C)C)C(C)C)[C@@H](C)O)C(=O)N1CCC[C@H]1C(=O)N[C@@H](C)C(=O)N[C@@H](CC(=O)O)C(=O)N[C@@H](CC(C)C)C(=O)N[C@@H](Cc1ccc(O)cc1)C(=O)N[C@@H](CCC(=O)O)C(=O)N[C@@H](Cc1c[nH]c2ccccc12)C(=O)N[C@H](C(=O)N[C@@H](CCCNC(=N)N)C(=O)N[C@@H](CCCNC(=N)N)C(N)=O)C(C)C [SEQ ID NO: 118] (Ac-VHVTIPADLYEWVRR-NH2)
< 10	CC[C@H](C)[C@H](NC(C)=O)C(=O)N[C@@H](Cc1c[nH]cn1)C(=O)N[C@H](C(=O)N[C@H](C(=O)N[C@H](C(=O)N1CCC[C@H]1C(=O)N[C@@H](C)C(=O)N[C@@H](CC(=O)O)C(=O)N[C@@H](CC(C)C)C(=O)N[C@@H](Cc1c[nH]c2ccccc12)C(=O)N[C@@H](CC(=O)O)C(=O)N[C@@H](Cc1c[nH]c2ccccc12)C(=O)N[C@@H](CCCCN)C(=O)N[C@@H](CC(N)=O)C(=O)N[C@@H](CCCCN)C(N)=O)[C@@H](C)CC)[C@@H](C)O)C(C)C [SEQ ID NO: 213] (Ac-IHVTIPADLWDWKNK-NH2)
< 10	CC[C@H](C)[C@H](NC(C)=O)C(=O)N[C@@H](Cc1c[nH]cn1)C(=O)N[C@H](C(=O)N[C@H](C(=O)N[C@H](C(=O)N1CCC[C@H]1C(=O)N[C@@H](CC(C)C)C(=O)N[C@@H](CC(=O)O)C(=O)N[C@@H](CC(C)C)C(=O)N[C@@H](Cc1c[nH]c2ccccc12)C(=O)N[C@@H](CC(=O)O)C(=O)N[C@@H](Cc1c[nH]c2ccccc12)C(=O)N[C@H](C(=O)N[C@@H](CC(N)=O)C(=O)N[C@@H](CCCCN)C(N)=O)[C@@H](C)CC)[C@@H](C)CC)[C@@H](C)O)C(C)C [SEQ ID NO: 193] (Ac-IHVTIPLDLWDWINK-NH2)
< 0.5	CC[C@H](C)[C@H](NC(=O)[C@@H](NC(=O)[C@H](Cc1ccccc1)NC(=O)[C@H](Cc1c[nH]cn1)NC(=O)[C@@H](NC(C)=O)C(C)C)[C@@H](C)O)C(=O)N1CCC[C@H]1C(=O)N[C@@H](CCC(N)=O)C(=O)N[C@@H](CC(=O)O)C(=O)N[C@@H](CC(C)C)C(=O)N[C@@H](Cc1ccc(O)cc1)C(=O)N[C@@H](CCC(=O)O)C(=O)N[C@@H](Cc1c[nH]c2ccccc12)C(=O)N[C@H](C(=O)N[C@@H](CCCNC(=N)N)C(=O)N[C@@H](CCCNC(=N)N)C(N)=O)C(C)C [SEQ ID NO: 126] (Ac-VHFTIPQDLYEWVRR-NH2)
< 10	CC[C@H](C)[C@H](NC(=O)[C@H](Cc1c[nH]c2ccccc12)NC(=O)[C@H](CC(=O)O)NC(=O)[C@H](Cc1c[nH]c2ccccc12)NC(=O)[C@H](CC(C)C)NC(=O)[C@H](CC(=O)O)NC(=O)[C@H](C)NC(=O)[C@@H]1CCCN1C(=O)[C@@H](NC(=O)[C@@H](NC(=O)[C@@H](NC(=O)[C@H](Cc1c[nH]cn1)NC(=O)[C@H](C)NC(C)=O)C(C)C)[C@@H](C)O)[C@@H](C)CC)C(=O)N[C@@H](CC(N)=O)C(=O)N[C@@H](CCCCN)C(N)=O [SEQ ID NO: 158] (Ac-AHVTIPADLWDWINK-NH2)
< 0.5	CC[C@H](C)[C@H](NC(=O)[C@H](Cc1ccc(O)cc1)NC(=O)[C@@H](NC(=O)[C@H](Cc1c[nH]cn1)NC(=O)[C@@H](NC(C)=O)C(C)C)C(C)C)C(=O)N1CCC[C@H]1C(=O)N[C@@H](C)C(=O)N[C@@H](CCC(=O)O)C(=O)N[C@@H](CC(C)C)C(=O)N[C@@H](Cc1c[nH]c2ccccc12)C(=O)N[C@@H](CCC(=O)O)C(=O)N[C@@H](Cc1c[nH]c2ccccc12)C(=O)N[C@H](C(=O)N[C@@H](CCCNC(=N)N)C(=O)N[C@@H](CCCNC(=N)N)C(N)=O)C(C)C [SEQ ID NO: 122] (Ac-VHVYIPAELWEWVRR-NH2)
< 10	CC[C@H](C)[C@H](NC(C)=O)C(=O)N[C@@H](Cc1c[nH]cn1)C(=O)N1CCC[C@H]1C(=O)N[C@H](C(=O)N[C@H](C(=O)N1CCC[C@H]1C(=O)N[C@@H](C)C(=O)N[C@@H](CC(=O)O)C(=O)N[C@@H](CC(C)C)C(=O)N[C@@H](Cc1c[nH]c2ccccc12)C(=O)N[C@@H](CC(=O)O)C(=O)N[C@@H](Cc1c[nH]c2ccccc12)C(=O)N[C@H](C(=O)N[C@@H](CC(N)=O)C(=O)N[C@@H](CCCCN)C(N)=O)[C@@H](C)CC)[C@@H](C)CC)[C@@H](C)O [SEQ ID NO: 170] (Ac-IHPTIPADLWDWINK-NH2)
< 10	CC[C@H](C)[C@H](NC(C)=O)C(=O)N[C@@H](Cc1c[nH]cn1)C(=O)N[C@H](C(=O)N[C@H](C(=O)N[C@H](C(=O)N1CCC[C@H]1C(=O)N[C@@H](CC(N)=O)C(=O)N[C@@H](CC(=O)O)C(=O)N[C@@H](CC(C)C)C(=O)N[C@@H](Cc1c[nH]c2ccccc12)C(=O)N[C@@H](CC(=O)O)C(=O)N[C@@H](Cc1c[nH]c2ccccc12)C(=O)N[C@H](C(=O)N[C@@H](CC(N)=O)C(=O)N[C@@H](CCCCN)C(N)=O)[C@@H](C)CC)[C@@H](C)CC)[C@@H](C)O)C(C)C [SEQ ID NO: 197] (Ac-IHVTIPNDLWDWINK-NH2)
< 10	CC[C@H](C)[C@H](NC(C)=O)C(=O)N[C@@H](Cc1c[nH]cn1)C(=O)N[C@H](C(=O)N[C@H](C(=O)N[C@H](C(=O)N1CCC[C@H]1C(=O)N[C@H](C(=O)N[C@@H](CC(=O)O)C(=O)N[C@@H](CC(C)C)C(=O)N[C@@H](Cc1c[nH]c2ccccc12)C(=O)N[C@@H](CC(=O)O)C(=O)N[C@@H](Cc1c[nH]c2ccccc12)C(=O)N[C@H](C(=O)N[C@@H](CC(N)=O)C(=O)N[C@@H](CCCCN)C(N)=O)[C@@H](C)CC)C(C)C)[C@@H](C)CC)[C@@H](C)O)C(C)C [SEQ ID NO: 195] (Ac-IHVTIPVDLWDWINK-NH2)
